Experiments:
[1] = test system: IL-6 stimulated CCL2 (MCP-1) production in human PBMCs; assay: Inhibition of IL-6 stimulated CCL2 (MCP-1) in human PBMCs; type: cell-based; details: PBMC, 48 h stimulation, ELISA, read-out: pIC50, inhibition of IL-6 stimulated CCL2 (MCP-1) (converted)
Protocol: (§1) The potency of the test compound for inhibition of interleukin-6 (IL-6) stimulated CCL2 (MCP-1) production was measured in human peripheral blood mononuclear cells (PBMCs) isolated from human whole blood (Stanford Blood Center). Because IL-6 signals through JAK, this assay provides a distal measure of JAK cellular potency.
(1) The protocol of Assay 4 paragraph (1) was followed up to the incubation with test compounds. In the present assay, after test compounds were added to wells and incubated, IL-6 (R&D Systems; final concentration 10 ng/ml) in pre-warmed assay media (50 μL) was added.
(2) After cytokine stimulation for 48 h, cells were centrifuged at 500 g for 5 min and supernatants were removed and frozen at −80° C. To determine the inhibitory potency of the test compound in response to IL-6, supernatant CCL2 (MCP-1) concentrations were measured via ELISA (R&D Systems). IC50 values were determined from analysis of the inhibition curves of concentration of CCL2/MCP-1 vs compound concentration. Data are expressed as pIC50 (negative decadic logarithm IC50) values.

[2] = Lung and plasma pharmacokinetics in mice; type: in vivo, mouse; details: BALB/c mice
Protocol: Plasma and lung concentrations of compound 1 and ratios thereof were determined in the following manner. BALB/c mice from Charles River Laboratories were used in the assay. Compound 1 was formulated in 20% propylene glycol in citrate buffer (pH 4) at a concentration of 0.324 mg/mL as a solution. 50 μL of the solution formulation was introduced into the trachea of a mouse by oral aspiration. At various time points (0.167, 2, 6 hr) post dosing, blood samples were removed via cardiac puncture and intact lungs were excised from the mice. Blood samples were centrifuged (Eppendorf centrifuge, 5804R) for 4 minutes at approximately 12,000 rpm at 4° C. to collect plasma. Lungs were padded dry, weighed, and homogenized in 0.6 mL sterile water. Plasma and lung concentrations of compound 1 were determined by LC-MS analysis against analytical standards constructed into a standard curve in the test matrix. […] The lung-to-plasma ratio was determined as the ratio of the lung AUC in μg hr/g to the plasma AUC in μg hr/mL (where AUC is conventionally defined as the area under the curve of test compound concentration vs. time).

[3] = test system: IL-2/anti-CD3 stimulated IFNγ in human PBMCs; assay: Inhibition of IL-2/anti-CD3 stimulated IFNγ in human PBMCs; type: cell-based; details: PBMC, 24 h stimulation, ELISA, read-out: pIC50, inhibition of IL-2/anti-CD3 stimulated IFNγ (converted)
Protocol: as §1, with “interleukin-2 (IL-2)/anti-CD3” for “interleukin-6 (IL-6)”, “interferon gamma (IFNγ)” for “CCL2 (MCP-1) production”, “IL-2” for “IL-6”, “a” for “a distal”
(1) Human peripheral blood mononuclear cells (PBMC) were isolated from human whole blood of healthy donors using a ficoll gradient. Cells were cultured in a 37° C., 5% CO2 humidified incubator in RPMI (Life Technologies) supplemented with 10% Heat Inactivated Fetal Bovine Serum (FBS, Life Technologies), 2 mM Glutamax (Life Technologies), 25 mM HEPES (Life Technologies) and 1× Pen/Strep (Life Technologies). Cells were seeded at 200,000 cells/well in media (50 μL) and cultured for 1 h. The compound was serially diluted in DMSO and then diluted another 500-fold (to a 2× final assay concentration) in media. […]
(2) After cytokine stimulation, cells were centrifuged at 500 g for 5 min and supernatants removed and frozen at −80° C. To determine the inhibitory potency of test compounds in response to IL-2/anti-CD3, supernatant IFNγ concentrations were measured via ELISA (R&D Systems). IC50 values were determined from analysis of the inhibition curves of concentration of IFNγ vs compound concentration. Data are expressed as pIC50 (negative decadic logarithm IC50) values.

ALK = molecular target: T1, ALK (Homo sapiens, UniProt Q9UM73); assay: Kinome screen, ALK; type: binding; details: screened at 1 μM
T1 construct: made in house; host or cells: E. coli BL21-derived host (T7 phage) or HEK-293 cells
T1 sequence (Q9UM73 19-1620): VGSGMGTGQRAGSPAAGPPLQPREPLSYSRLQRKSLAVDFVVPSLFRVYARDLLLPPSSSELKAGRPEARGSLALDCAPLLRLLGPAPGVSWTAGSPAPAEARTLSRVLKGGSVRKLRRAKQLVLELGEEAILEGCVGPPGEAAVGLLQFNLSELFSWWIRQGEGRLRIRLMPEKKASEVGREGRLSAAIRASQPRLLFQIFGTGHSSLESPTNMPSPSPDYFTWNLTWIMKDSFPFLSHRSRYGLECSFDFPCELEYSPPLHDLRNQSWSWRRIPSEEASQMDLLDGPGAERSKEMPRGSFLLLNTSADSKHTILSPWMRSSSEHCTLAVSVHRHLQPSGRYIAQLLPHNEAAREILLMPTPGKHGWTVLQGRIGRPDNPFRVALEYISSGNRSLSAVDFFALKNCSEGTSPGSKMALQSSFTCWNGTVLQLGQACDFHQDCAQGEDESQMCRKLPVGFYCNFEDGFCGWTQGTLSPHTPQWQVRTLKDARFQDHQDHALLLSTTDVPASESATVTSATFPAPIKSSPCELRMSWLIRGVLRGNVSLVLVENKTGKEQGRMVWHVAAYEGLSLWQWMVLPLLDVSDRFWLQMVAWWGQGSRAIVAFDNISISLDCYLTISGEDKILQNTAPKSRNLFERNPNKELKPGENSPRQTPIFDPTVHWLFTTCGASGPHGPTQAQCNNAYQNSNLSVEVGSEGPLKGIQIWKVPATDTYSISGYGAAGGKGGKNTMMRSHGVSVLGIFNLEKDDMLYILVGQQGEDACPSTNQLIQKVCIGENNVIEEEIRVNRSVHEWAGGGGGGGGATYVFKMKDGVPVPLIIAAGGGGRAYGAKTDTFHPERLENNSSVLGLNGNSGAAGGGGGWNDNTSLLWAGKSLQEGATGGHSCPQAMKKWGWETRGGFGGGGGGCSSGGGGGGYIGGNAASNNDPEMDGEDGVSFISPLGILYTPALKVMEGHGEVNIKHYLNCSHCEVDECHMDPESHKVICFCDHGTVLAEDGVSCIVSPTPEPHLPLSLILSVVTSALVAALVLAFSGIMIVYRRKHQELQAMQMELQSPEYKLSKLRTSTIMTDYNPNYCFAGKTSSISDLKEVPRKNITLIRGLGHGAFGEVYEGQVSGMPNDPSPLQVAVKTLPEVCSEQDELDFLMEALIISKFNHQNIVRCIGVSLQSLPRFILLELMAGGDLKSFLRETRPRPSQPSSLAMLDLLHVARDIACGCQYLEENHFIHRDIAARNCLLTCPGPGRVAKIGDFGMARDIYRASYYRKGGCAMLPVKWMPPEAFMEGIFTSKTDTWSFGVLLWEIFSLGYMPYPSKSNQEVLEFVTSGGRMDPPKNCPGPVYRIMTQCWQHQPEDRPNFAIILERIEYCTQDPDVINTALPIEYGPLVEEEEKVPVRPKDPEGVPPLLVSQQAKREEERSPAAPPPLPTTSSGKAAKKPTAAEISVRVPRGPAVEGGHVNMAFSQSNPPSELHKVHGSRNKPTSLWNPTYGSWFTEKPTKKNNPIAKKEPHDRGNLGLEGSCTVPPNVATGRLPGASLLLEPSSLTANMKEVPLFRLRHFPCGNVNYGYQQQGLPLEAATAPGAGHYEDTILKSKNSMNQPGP
Protocol: Compounds 1 and C-1 were screened against other kinases to evaluate their selectivity profile.
Kinase-tagged T7 phage strains were grown in parallel in 24-well blocks in an E. coli host derived from the BL21 strain. E. coli were grown to log-phase and infected with T7 phage from a frozen stock (multiplicity of infection=0.4) and incubated with shaking at 32° C. until lysis (90-150 minutes). The lysates were centrifuged (6,000×g) and filtered (0.2 μm) to remove cell debris. The remaining kinases were produced in HEK-293 cells and subsequently tagged with DNA for qPCR detection.
Streptavidin-coated magnetic beads were treated with biotinylated small molecule ligands for 30 minutes at room temperature to generate affinity resins for kinase assays. The liganded beads were blocked with excess biotin and washed with blocking buffer (SeaBlock (Pierce), 1% BSA, 0.05% Tween 20, 1 mM DTT) to remove unbound ligand and to reduce non-specific phage binding. Binding reactions were assembled by combining kinases, liganded affinity beads, and test compounds in 1× binding buffer (20% SeaBlock, 0.17×PBS, 0.05% Tween 20, 6 mM DTT). Test compounds were prepared as 40× stocks in 100% DMSO and directly diluted into the assay. All reactions were performed in polypropylene 384-well plates in a final volume of 0.04 ml. […] The kinase concentration in the eluates was measured by qPCR. […]

CCc1cc(O)c(F)cc1-c1cc(F)c2c(-c3nc4c([nH]3)CCN(C(=O)[C@]35C[C@H]3CCN5)C4)n[nH]c2c1 [Compound 1, (1S,5R)-2-azabicyclo[3.1.0]hexan-1-yl(2-(6-(2-ethyl-5-fluoro-4-hydroxyphenyl)-4-fluoro-1H-indazol-3-yl)-6,7-dihydro-3H-imidazo[4,5-c]pyridin-5(4H)-yl)methanone]
IC50 [1]: 316 nM
lung AUC (0-6 hr) ([2]; oral aspiration of 50 μL of 0.324 mg/mL solution): 43.5 µg·h/g
Kp ([2]; mouse, 16.2 µg/mouse, oral aspiration, lung AUC in μg hr/g to plasma AUC in μg hr/mL, read-out: lung-to-plasma AUC ratio): 59.6
IC50 [3]: 200 nM
inhibition at 1 µM (ALK): 79%

From patent US10968222B2, “2-azabicyclo hexane JAK inhibitor compound” (THERAVANCE BIOPHARMA R&D IP, LLC, priority 2018, dated 2021)
